# Laboratory results from ChEMBL document CHEMBL6109156, “Discovery of Dual PD-L1/HDAC3 Inhibitors for Tumor Immunotherapy” (J Med Chem, 2025).
# Legend:
# [1] = Toxicity in C57BL/6J mouse implanted with mouse B16-F10 cells assessed as heart damage at 20 to 40 mg/kg, ip administered once daily for 9 days by H and E staining based analysis; format: organism-based; conditions: in vivo, 216 h, dose 20-40 mg/kg, time 9 day
# [2] = Toxicity in C57BL/6J mouse implanted with mouse B16-F10 cells assessed as spleen damage at 20 to 40 mg/kg, ip administered once daily for 9 days by H and E staining based analysis; format: organism-based; conditions: in vivo, 216 h, dose 20-40 mg/kg, time 9 day
# [3] = Toxicity in C57BL/6J mouse implanted with mouse B16-F10 cells assessed as lung damage at 20 to 40 mg/kg, ip administered once daily for 9 days by H and E staining based analysis; format: organism-based; conditions: in vivo, 216 h, dose 20-40 mg/kg, time 9 day
# [4] = target: Programmed cell death protein 1/Programmed cell death 1 ligand 1 (Homo sapiens) (UniProt Q15116+Q9NZQ7); assay: Inhibition of PD-1/PD-L1 (unknown origin) interaction assessed as inhibition rate at 0.1 uM by HTRF assay relative to control; format: protein-complex assay
# Histone deacetylase 3 = Histone deacetylase 3 (Homo sapiens, UniProt O15379); assay: Inhibition of human recombinant HDAC3 using Ac-Leu-Gly-Lys (Ac)-AMC as substrate at 1 uM preincubated for 10 mins followed by substrate addition and measured after 45 mins by TECAN microtiter plate reader analysis relative to control; conditions: time 55.0 min
# B16-F10 [5] = assay: Antiproliferative activity against mouse B16-F10 cells assessed as cell growth inhibition incubated for 48 hrs by MTT assay; format: functional, cell-based; conditions: B16-F10, 48 h
# MDA-MB-231 = assay: Antiproliferative activity against human MDA-MB-231 cells assessed as cell growth inhibition incubated for 48 hrs by MTT assay; format: functional, cell-based; conditions: MDA-MB-231, 48 h
# HCT-116 = assay: Antiproliferative activity against human HCT-116 cells assessed as cell growth inhibition incubated for 48 hrs by MTT assay; format: functional, cell-based; conditions: HCT-116, 48 h
# [6] = target: T1, Histone deacetylase 3 (Mus musculus) (UniProt O88895); assay: Inhibition of HDAC3 in mouse B16-F10 cells assessed as upregulation of Ac-H3 level incubated for 24 hrs by Western blotting analysis; format: cell-based; conditions: dose 1-8 µM
# T1 sequence (whole entry): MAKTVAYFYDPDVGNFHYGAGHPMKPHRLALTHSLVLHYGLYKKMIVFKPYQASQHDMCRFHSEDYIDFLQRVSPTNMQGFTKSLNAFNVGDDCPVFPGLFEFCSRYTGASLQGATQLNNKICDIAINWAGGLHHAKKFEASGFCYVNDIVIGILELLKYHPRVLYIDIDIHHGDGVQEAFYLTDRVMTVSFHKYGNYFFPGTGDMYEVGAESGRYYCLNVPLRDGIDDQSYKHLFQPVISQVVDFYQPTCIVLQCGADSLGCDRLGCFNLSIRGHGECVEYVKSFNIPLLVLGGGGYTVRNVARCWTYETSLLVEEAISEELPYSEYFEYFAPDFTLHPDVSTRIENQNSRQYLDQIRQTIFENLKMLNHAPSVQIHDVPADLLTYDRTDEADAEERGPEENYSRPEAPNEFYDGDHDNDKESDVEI
# B16-F10 [7] = assay: Induction of apoptosis in mouse B16-F10 cells assessed as viable cells at 2 uM incubated for 48 hrs by Annexin V-FITC/PI staining based flow cytometry analysis (reference value: 92.3%); format: functional; conditions: read-out: Activity
# B16-F10 [8] = assay: Induction of apoptosis in mouse B16-F10 cells assessed as viable cells at 4 uM incubated for 48 hrs by Annexin V-FITC/PI staining based flow cytometry analysis (reference value: 92.3%); format: functional; conditions: read-out: Activity
# B16-F10 [9] = assay: Induction of apoptosis in mouse B16-F10 cells assessed as viable cells at 10 uM incubated for 48 hrs by Annexin V-FITC/PI staining based flow cytometry analysis (reference value: 92.3%); format: functional; conditions: read-out: Activity
# B16-F10 [10] = assay: Induction of apoptosis in mouse B16-F10 cells assessed as early apoptotic cells at 2 uM incubated for 48 hrs by Annexin V-FITC/PI staining based flow cytometry analysis (reference value: 0.45 %); format: functional
# B16-F10 [11] = assay: Induction of apoptosis in mouse B16-F10 cells assessed as early apoptotic cells at 10 uM incubated for 48 hrs by Annexin V-FITC/PI staining based flow cytometry analysis (reference value: 0.45 %); format: functional
# B16-F10 [12] = assay: Induction of apoptosis in mouse B16-F10 cells assessed as late apoptotic cells at 1 uM incubated for 48 hrs by Annexin V-FITC/PI staining based flow cytometry analysis (reference value: 5.02 %); format: functional
# B16-F10 [13] = assay: Induction of apoptosis in mouse B16-F10 cells assessed as late apoptotic cells at 2 uM incubated for 48 hrs by Annexin V-FITC/PI staining based flow cytometry analysis (reference value: 5.02 %); format: functional
# B16-F10 [14] = assay: Induction of apoptosis in mouse B16-F10 cells assessed as late apoptotic cells at 8 uM incubated for 48 hrs by Annexin V-FITC/PI staining based flow cytometry analysis (reference value: 5.02 %); format: functional
# B16-F10 [15] = assay: Induction of apoptosis in mouse B16-F10 cells assessed as late apoptotic cells at 10 uM incubated for 48 hrs by Annexin V-FITC/PI staining based flow cytometry analysis (reference value: 5.02 %); format: functional
# B16-F10 [16] = assay: Induction of apoptosis in mouse B16-F10 cells assessed as necrotic cells at 8 uM incubated for 48 hrs by Annexin V-FITC/PI staining based flow cytometry analysis (reference value: 2.24%); format: functional
# B16-F10 [17] = assay: Induction of apoptosis in mouse B16-F10 cells assessed as necrotic cells at 10 uM incubated for 48 hrs by Annexin V-FITC/PI staining based flow cytometry analysis (reference value: 2.24%); format: functional
# B16-F10 [18] = assay: Induction of cell cycle arrest in mouse B16-F10 cells assessed as accumulation of cells at G2/M phase at 2 uM incubated for 48 hrs by PI staining based flow cytometry analysis (reference value: 5.87%); format: functional
# B16-F10 [19] = assay: Induction of cell cycle arrest in mouse B16-F10 cells assessed as accumulation of cells at G2/M phase at 8 uM incubated for 48 hrs by PI staining based flow cytometry analysis (reference value: 5.87%); format: functional
# B16-F10 [20] = assay: Induction of cell cycle arrest in mouse B16-F10 cells assessed as accumulation of cells at S phase at 8 uM incubated for 48 hrs by PI staining based flow cytometry analysis (reference value: 24.04%); format: functional
# B16-F10 [21] = assay: Antitumor activity against mouse B16-F10 cells implanted in C57BL/6J mouse assessed as tumor growth inhibition at 20 mg/kg, ip administered once daily for 9 days; format: functional; conditions: B16-F10, 216 h, time 9 day, read-out: TGI
# [22] = Toxicity in C57BL/6J mouse implanted with mouse B16-F10 cells assessed as kidney damage at 20 to 40 mg/kg, ip administered once daily for 9 days by H and E staining based analysis; format: organism-based; conditions: in vivo, 216 h, dose 20-40 mg/kg, time 9 day
# B16-F10 [23] = assay: Immunomodulatory activity in mouse B16-F10 cells implanted in C57BL/6J mouse assessed as percentage of CD3 positive CD8 positive cells in tumor at 40 mg/kg, ip administered once daily for 9 days by flow cytometric analysis (reference value: 0.44 %); format: functional; conditions: time 9 day
# B16-F10 [24] = assay: Immunomodulatory activity in mouse B16-F10 cells implanted in C57BL/6J mouse assessed as percentage of CD3 positive CD4 positive cells in tumor at 40 mg/kg, ip administered once daily for 9 days by flow cytometric analysis (reference value: 0.20 %); format: functional; conditions: time 9 day
# Chain of Histone deacetylase 3 (O15379 whole entry): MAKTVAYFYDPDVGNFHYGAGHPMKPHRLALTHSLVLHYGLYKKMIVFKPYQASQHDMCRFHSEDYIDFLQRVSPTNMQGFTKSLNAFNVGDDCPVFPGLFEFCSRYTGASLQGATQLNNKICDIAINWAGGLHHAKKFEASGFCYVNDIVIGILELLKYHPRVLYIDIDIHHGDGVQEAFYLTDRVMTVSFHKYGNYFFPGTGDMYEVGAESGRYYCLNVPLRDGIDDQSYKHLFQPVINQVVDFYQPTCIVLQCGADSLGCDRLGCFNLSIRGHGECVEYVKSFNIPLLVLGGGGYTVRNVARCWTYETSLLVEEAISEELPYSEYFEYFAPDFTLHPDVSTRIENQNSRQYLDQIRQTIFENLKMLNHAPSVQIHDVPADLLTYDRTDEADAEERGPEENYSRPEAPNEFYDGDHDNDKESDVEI
structure (smiles),measurement,setting,value
CCCNNC(=O)CCCNCc1ccc(-c2cccc(-c3ccccc3)c2C)nc1OC,Activity,[1],Non-toxic
same,Activity,[2],Non-toxic
same,Activity,[3],Non-toxic
same,inhibition,[4],55.4%
same,inhibition,Histone deacetylase 3,83.1%
same,IC50,B16-F10 [5],2330 nM
same,IC50,MDA-MB-231,3010 nM
same,IC50,HCT-116,2860 nM
same,inhibition,[6],Dose-dependent-effect
same,viability at 2 µM,B16-F10 [7],71.7%
same,viability at 4 µM,B16-F10 [8],62.3%
same,viability at 10 µM,B16-F10 [9],31.3%
same,Activity,B16-F10 [10],9.81%
same,Activity,B16-F10 [11],52.9%
same,Activity,B16-F10 [12],9.24%
same,Activity,B16-F10 [13],14.1%
same,Activity,B16-F10 [14],11.4%
same,Activity,B16-F10 [15],14.8%
same,Activity,B16-F10 [16],2.21%
same,Activity,B16-F10 [17],1.04%
same,Activity,B16-F10 [18],4.96%
same,Activity,B16-F10 [19],2.69%
same,Activity,B16-F10 [20],0.5%
same,inhibition in vivo at 20 mg/kg,B16-F10 [21],48.9%
same,Activity,[22],Non-toxic
same,Activity,B16-F10 [23],5.08%
same,Activity,B16-F10 [24],2.8%
